Laboratory results reported in US12102633B2, “Spirolactone compounds” (Quixgen, Inc., priority 2017, dated 2024).

How the values were obtained:
[1] = system: T1, Mouse ACC (ACC protein purified from liver); test: Mouse ACC enzymatic activity assay; format: biochemical; settings: read-out: EA-CoA mACC IC50
T1 construct: ACC protein was purified by taking advantage of the biotinylation in the carboxylase domain
In short: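 ACC affinity-purified from livers of male C57BL/6J mice (biotin-based capture), pre-incubated 10 min at 37 °C with compound. Reaction with 0.5 mM acetyl-CoA, 4.0 mM ATP, 15 mM 13C-NaHCO3, 0.5 mM citrate, pH 7.5, 1 h at 37 °C; malonyl-13C-CoA quantified by LC-MS/MS as pmoles/mg protein per minute.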

[2] = Plasma protein binding (human); format: in vitro ADME; settings: % free, read-out: PPB (h/m) % free, human
Procedure: (§1) The data in Table 5 were obtained by following the methods disclosed in this application and/or those standard techniques known in the art. ACC enzyme activities were measured according to Biological Examples 1 and 2; Malonyl-CoA in sebocytes were measured according to Biological Example 4; Effect on lipogenesis of 3T3-L1 adipocytes were measured according to Biological Example 7; Effect on lipogenesis of sebocytes were measured according to Biological Example 5; Effect on proliferation of sebocytes were measured according to Biological Example 6; Mouse PK were measured according to Biological Example 10; and Plasma protein binding (human or mouse) were measured by standard technique.

3T3-L1 adipocytes = test: Lipogenesis of 3T3-L1 adipocytes; format: cell-based; settings: Mus musculus, TG readout, read-out: LG-3T3 IC50
Procedure: 3T3-L1 fibroblast cells (Zen-Bio) were grown in 96-well culture microplate (Corning) with growth media to around 90-100% confluency. Culture media was changed to differentiation media (growth media supplemented with 3-Isobutyl-1-Methylxanthine 500 μM, Dexamethasone 1 μM, insulin 10 μg/mL, and rosiglitazone 2 μM) plus serially diluted compounds prepared in DMSO (1:1000 dilution). After incubation for 2 days, media was changed to maintenance media (growth media supplemented with insulin 10 μg/mL) plus serially diluted compounds prepared in DMSO (1:1000 dilution) for around 1 week with media changed every 2 days. Upon completion of the treatment, culture media are discarded and 200 μL 0.01% SDS was added to each well and shaken for 1 hour to lyse the cells. Cell lysates were then transferred to 400 μL Folch's solution (chloroform: methanol=2:1) and mixed well. After centrifuge at 2,000 rpm for 20 min, 200 μL of the lower organic phase was transferred to a plate with 10 μL sample buffer (chloroform:Triton-100=3:1). Samples were blown dried under nitrogen and 200 μL triglyceride (TG) quantification reagent (Thermo Fisher Scientific) was added, mixed, and incubated at 37° C. for 30 min. TG concentration was determined by reading absorbance at 535 nm (Dynex MRX^e Magellan Biosciences) and calculated from standard curve.

[3] = Plasma protein binding (mouse); format: in vitro ADME; settings: % free, read-out: PPB (h/m) % free, mouse
Procedure: as §1

IC50 [1] | fraction unbound [2] | fraction unbound [3] | Structure (SMILES) | IC50 (3T3-L1 adipocytes)
0.34 nM | 0.0036 | 0.0073 | COc1cc(C(=O)N2CCC3(CC2)Cc2ccc(Nc4ccnn4C)cc2C(=O)O3)nc2c(OC)cccc12 [Example 6, 1′-(4,8-dimethoxyquinoline-2-carbonyl)-7-((1-methyl-1H-pyrazol-5-yl)amino)spiro[isochroman-3,4′-piperidin]-1-one] | 21.9 nM
2.4 nM | 0.0037 | 0.0028 | COc1cc(C(=O)N2CCC3(CC2)Cc2ccc(C(C)C)cc2C(=O)O3)nc2c(OC)cccc12 [Example 2, 1′-(4,8-dimethoxyquinoline-2-carbonyl)-7-isopropylspiro[isochroman-3,4′-piperidin]-1-one] | 0.8 nM
